Values of other authors in US10307432B2, “Stabilized liquid fosaprepitant formulations” (Cipla Limited, priority 2015, dated 2019).

Tests used:
[1] = test system: serotonin, dopamine or corticosteroid receptors
[2] = after an IV infusion

Row | affinity for serotonin, dopamine or corticosteroid receptors [1] | time of conversion to aprepitant [2] | Compound
1 | little or no affinity | – | C[C@@H](O[C@H]1OCCN(Cc2n[nH]c(=O)[nH]2)[C@H]1c1ccc(F)cc1)c1cc(C(F)(F)F)cc(C(F)(F)F)c1 [Aprepitant]
2 | – | less than 30 minutes | C[C@@H](O[C@H]1OCCN(Cc2nc(O)n(P(=O)(O)O)n2)[C@H]1c1ccc(F)cc1)c1cc(C(F)(F)F)cc(C(F)(F)F)c1 [Fosaprepitant]
